Several values for one entry are separate records, joined by “and”; a condition that tells them apart may be missing. Equal values may be shown once.
How the values were obtained:
Experiment in all cases: in vitro succinate: Q0/DCPIP activity test, purified mitochondria
[1] = target: succinate dehydrogenase (SDH), WT (IPO323) (Zymoseptoria tritici (Mycosphaerella graminicola), UniProt F9X9V6+F9XG45+F9XH52); format: biochemical; conditions: ±S.E. (triplicate), read-out: IC50 in vitro
Experimental: (§1) To explore the sensitivity profiles conferred by amino acid substitutions at the cellular and mitochondrial level, we determined sensitivity towards 4 different compounds for 26 of the identified substitution types both in vivo using liquid culture growth (AE media) and in vitro using purified mitochondria and the succinate: Q0/DCPIP activity test (Table 3). […] Resistance factors (RF) were determined as the ratio IC50mutant/IC50WT. […] Qp site mutations are well known to influence SDH enzyme activity and stability upon catalysis, [13], [38], [41].
(§2) Strains were grown in 1 liter TSM40 units. Cultures were inoculated at 0.05 OD600 nm and grown on a reciprocal shaker (110 rpm, 22°C) for 5 days. Cells were harvested by vacuum filtration and disrupted in liquid nitrogen using a mortar and pestle. Resultant powder was re-suspended to 10% w/v in mitochondrial extraction buffer (10 mM KHPO4 pH7.2; 10 mM KCl, 10 mM MgCl2, 0.5 M sucrose, 0.2 mM EDTA, 2 mM PMSF). Extract was clarified by centrifugation (5,000 g, 4°C for 10 minutes, 2 times), intact mitochondria were then pelleted at 10,000 g for 20 minutes at 4°C. […] This volume was transferred to conical 1.5 ml tubes and re-centrifuged, 10,000 g for 10 minutes at 4°C. […] Mitochondrial suspensions were brought to a final concentration of 10 mg ml^−1 in extraction buffer and stored at −80°C until used.
(§3) Mitochondrial suspensions were incubated at 30°C for 30 minutes in extraction buffer supplemented with 10 mM succinate prior to enzymatic measurements.
(§4) A reaction plate was equilibrated for 10 minutes at 30°C before starting the reaction. DCPIP reduction was conducted at 30°C and monitored at 595 nm using a HTS7000 microtiterplate reader (Perkin Elmer). For calculations a molecular extinction coefficient of ε = 17 mM^−1 cm^−1 was used.
(§5) Inhibitor concentrations ranged between 1 mM and 0.95 nM with uniform 4× dilution factor steps (11 inhibitor concentrations+DMSO control). 96 wells plates were pre equilibrated at reaction temperature (30°C) for 10 minutes before the reactions were started by the addition of 5 µl preactivated M. graminicola mitochondrial suspension. Calculated absorbance slopes (OD/hour) were used for IC50 calculations using Graphpad Prism 5.0 software non linear curve fitting against log inhibitor concentrations.

[2] = tested on: SDH B_H267L (strain Cbx29); format: biochemical, Mycosphaerella graminicola; conditions: ratio IC50mutant/IC50WT, single determination
Experimental: as §1, §2, §3, §4, §5

[3] = tested on: SDH B_H267N (strain Cbx96); format: biochemical, Mycosphaerella graminicola; conditions: ratio IC50mutant/IC50WT, single determination
Experimental: as §1, §2, §3, §4, §5

[4] = tested on: SDH B_H267Q (strain Bos59); format: biochemical, Mycosphaerella graminicola; conditions: ratio IC50mutant/IC50WT, single determination
Experimental: as §1, §2, §3, §4, §5

[5] = tested on: SDH B_H267Y (strain Cbx28); format: biochemical, Mycosphaerella graminicola; conditions: ratio IC50mutant/IC50WT, single determination
Experimental: as §1, §2, §3, §4, §5

[6] = tested on: SDH B_I269V (strain Cbx1); format: biochemical, Mycosphaerella graminicola; conditions: ratio IC50mutant/IC50WT, single determination
Experimental: as §1, §2, §3, §4, §5

[7] = tested on: SDH B_N225H (strain Cbx106); format: biochemical, Mycosphaerella graminicola; conditions: ratio IC50mutant/IC50WT, single determination
Experimental: as §1, §2, §3, §4, §5

[8] = tested on: SDH B_N225I (strain Flu7); format: biochemical, Mycosphaerella graminicola; conditions: ratio IC50mutant/IC50WT, single determination
Experimental: as §1, §2, §3, §4, §5

[9] = tested on: SDH B_N271K (strain Flu33); format: biochemical, Mycosphaerella graminicola; conditions: ratio IC50mutant/IC50WT, single determination
Experimental: as §1, §2, §3, §4, §5

[10] = tested on: SDH B_P220L (strain Flu75); format: biochemical, Mycosphaerella graminicola; conditions: ratio IC50mutant/IC50WT, single determination
Experimental: as §1, §2, §3, §4, §5

[11] = tested on: SDH B_P220T (strain Flu110); format: biochemical, Mycosphaerella graminicola; conditions: ratio IC50mutant/IC50WT, single determination
Experimental: as §1, §2, §3, §4, §5

[12] = tested on: SDH B_R265P (strain Cbx56); format: biochemical, Mycosphaerella graminicola; conditions: ratio IC50mutant/IC50WT, single determination
Experimental: as §1, §2, §3, §4, §5

[13] = tested on: SDH B_S218F (strain Flu41); format: biochemical, Mycosphaerella graminicola; conditions: ratio IC50mutant/IC50WT, single determination
Experimental: as §1, §2, §3, §4, §5

[14] = tested on: SDH C_A84I (strain Flu21); format: biochemical, Mycosphaerella graminicola; conditions: ratio IC50mutant/IC50WT, single determination
Experimental: as §1, §2, §3, §4, §5

SDH C_A84V (strain Flu4) = format: biochemical, Mycosphaerella graminicola; conditions: ratio IC50mutant/IC50WT, single determination
Experimental: as §1, §2, §3, §4, §5

[15] = tested on: SDH C_H152R (strain Izm1); format: biochemical, Mycosphaerella graminicola; conditions: ratio IC50mutant/IC50WT, single determination
Experimental: as §1, §2, §3, §4, §5

[16] = tested on: SDH C_L85P (strain Cbx12); format: biochemical, Mycosphaerella graminicola; conditions: ratio IC50mutant/IC50WT, single determination
Experimental: as §1, §2, §3, §4, §5

SDH C_N86K (strain Izm7) = format: biochemical, Mycosphaerella graminicola; conditions: ratio IC50mutant/IC50WT, single determination
Experimental: as §1, §2, §3, §4, §5

SDH C_S83G (strain Flu1) = format: biochemical, Mycosphaerella graminicola; conditions: ratio IC50mutant/IC50WT, single determination
Experimental: as §1, §2, §3, §4, §5

[17] = tested on: SDH C_T79I (strain Bos64); format: biochemical, Mycosphaerella graminicola; conditions: ratio IC50mutant/IC50WT, single determination
Experimental: as §1, §2, §3, §4, §5

SDH C_V88D (strain Ol50) = format: biochemical, Mycosphaerella graminicola; conditions: ratio IC50mutant/IC50WT, single determination
Experimental: as §1, §2, §3, §4, §5

[18] = tested on: SDH D_D129E (strain Cbx22); format: biochemical, Mycosphaerella graminicola; conditions: ratio IC50mutant/IC50WT, single determination
Experimental: as §1, §2, §3, §4, §5

[19] = tested on: SDH D_D129G (strain Cbx67); format: biochemical, Mycosphaerella graminicola; conditions: ratio IC50mutant/IC50WT, single determination
Experimental: as §1, §2, §3, §4, §5

[20] = tested on: SDH D_D129S (strain Cbx101); format: biochemical, Mycosphaerella graminicola; conditions: ratio IC50mutant/IC50WT, single determination
Experimental: as §1, §2, §3, §4, §5

[21] = tested on: SDH D_D129T (strain Flu29); format: biochemical, Mycosphaerella graminicola; conditions: ratio IC50mutant/IC50WT, single determination, FR** (full resistance) = no sufficient inhibition detected at highest inhibitor concentration tested
Experimental: as §1, §2, §3, §4, §5

Chain of succinate dehydrogenase (SDH), WT (IPO323) (F9XG45 entry or part of it): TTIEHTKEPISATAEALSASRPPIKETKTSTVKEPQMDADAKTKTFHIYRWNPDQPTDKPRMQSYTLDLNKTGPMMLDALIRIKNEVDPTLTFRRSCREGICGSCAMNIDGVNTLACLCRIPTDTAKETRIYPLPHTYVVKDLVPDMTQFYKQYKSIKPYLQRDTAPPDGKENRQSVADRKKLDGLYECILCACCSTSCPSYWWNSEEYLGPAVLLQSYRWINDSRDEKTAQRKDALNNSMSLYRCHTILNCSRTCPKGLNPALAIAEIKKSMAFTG
Chain of succinate dehydrogenase (SDH), WT (IPO323) (F9X9V6 entry or part of it): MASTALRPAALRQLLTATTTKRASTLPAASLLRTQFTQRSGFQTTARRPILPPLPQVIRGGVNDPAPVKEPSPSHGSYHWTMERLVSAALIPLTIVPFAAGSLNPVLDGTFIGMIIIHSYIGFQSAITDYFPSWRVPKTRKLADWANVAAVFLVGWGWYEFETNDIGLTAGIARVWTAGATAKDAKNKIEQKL
Chain of succinate dehydrogenase (SDH), WT (IPO323) (F9XH52 entry or part of it): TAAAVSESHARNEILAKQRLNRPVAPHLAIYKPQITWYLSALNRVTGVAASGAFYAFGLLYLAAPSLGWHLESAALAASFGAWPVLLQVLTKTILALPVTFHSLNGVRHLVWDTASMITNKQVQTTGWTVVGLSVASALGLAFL

CC(C)C1C2CCC1c1c(NC(=O)c3cn(C)nc3C(F)F)cccc12 (stereo not shown) [Isopyrazam]
IC50 [1]: 5 ± 0.3 nM
Resistance Factors (RFs) in vitro [2]: 3248.5
Resistance Factors (RFs) in vitro [3]: 11.1
Resistance Factors (RFs) in vitro [4]: 34.6
Resistance Factors (RFs) in vitro [5]: 142.6
Resistance Factors (RFs) in vitro [6]: 3.6
Resistance Factors (RFs) in vitro [7]: 15.7
Resistance Factors (RFs) in vitro [8]: 7.0
Resistance Factors (RFs) in vitro [9]: 89.5
Resistance Factors (RFs) in vitro [10]: 1.2
Resistance Factors (RFs) in vitro [11]: 1.8
Resistance Factors (RFs) in vitro [12]: 88.3
Resistance Factors (RFs) in vitro [13]: 18.2
Resistance Factors (RFs) in vitro [14]: 8.1
Resistance Factors (RFs) in vitro (SDH C_A84V (strain Flu4)): 3.1
Resistance Factors (RFs) in vitro [15]: 95.0
Resistance Factors (RFs) in vitro [16]: 35.3
Resistance Factors (RFs) in vitro (SDH C_N86K (strain Izm7)): 849.9
Resistance Factors (RFs) in vitro (SDH C_S83G (strain Flu1)): 38.6
Resistance Factors (RFs) in vitro [17]: 56.4
Resistance Factors (RFs) in vitro (SDH C_V88D (strain Ol50)): 140.4
Resistance Factors (RFs) in vitro [18]: 145.3
Resistance Factors (RFs) in vitro [19]: 583.2
Resistance Factors (RFs) in vitro [20]: 82.5
Resistance Factors (RFs) in vitro [21]: 4095 and 4095.5

— publication PMC3334918, “Mutagenesis and Functional Studies with Succinate Dehydrogenase Inhibitors in the Wheat Pathogen Mycosphaerella graminicola” (PLoS ONE, 2012)
